Assay results published in patent US5235045A, “Non-azo naphthalimide dyes” (priority 1992, dated 1993).
Read-outs that look alike come from different tables or passages of the source.

How the values were obtained:
[1] = system: Human Herpes Simplex Virus Type I; assay: Photoinduced inactivation of HSV-I, plaque assay (Table 11); format: cell-based; details: 420±5 nm, 20J/cm^2
[2] = system: Bovine Herpes Virus Type I; assay: Photoinactivation of Bovine Herpes Virus Type I (CPE, TCID50); format: cell-based, Bovine Herpes Virus Type I (BHV-1); details: light or radiation study, 10J/cm^2; for killing at 0.035 µM / killing at 0.07 µM / killing at 0.14 µM / killing at 0.27 µM / killing at 0.54 µM / killing at 1.09 µM: read-out: % Inactivation; for killing at 0.07 µM / log reduction at 0.07 µM: 0.070 μM
Method: Bovine Herpes Virus Type I (BHV-1). Cell-free and serum-free virus (BHV-1 reference strain from Dr. M. L. Vickers, ADL SDSU) was purified by potassium tartrate gradient ultracentrifugation. Virus was then resuspended in minimal buffer. Compound VII was diluted with ethanol to a concentration of 5 mg/ml. The dye stock solution was prepared by sequentially adding the ethanolic dye solution to fetal bovine serum (FBS), and diluting the dye-FBS mixture with MEM to give 10% FBS in MEM, so that the final concentration of the compound was 500 ng/ml. All dilutions of the dye in the medium were made from this stock solution. Dye/virus mixtures were all prepared as 1:1 mixtures of virus and dye stock solution. The virus was incubated for 30 min at 37° C. prior to irradiation, and then irradiated using a xenon arc lamp to give 10J/cm^2 total irradiative flux. Photomodified virus was then incubated with the appropriate cells (fetal bovine lung - FBL - or MDBK) in 10% FBS in MEM for 1 hour. Then unbound virus was taken off, the cells were washed with Ca/Mg-free PBS, and the cells were then placed in 10% FBS-MEM. The cells were incubated for 24 hours at 37° C. in a 5% CO2 incubator. After 24 and 48 hours, the cells were assayed for cytophathic effect (CPE), and the results expressed in terms of using TCID50 units. The viral inactivation data are expressed in terms of % inactivation in Table 12.

[3] = Bleaching kinetics in synthetic vesicles; format: physicochemical; details: 150-W xenon arc lamp, 20° C.
Method: (§1) The dye was incorporated into synthetic vesicles as described above. The vesicles were irradiated with a 150-W Oriel xenon arc lamp at a distance of 4 cm from the lens at a thermostated temperature of 20° C. The change in fluorescence intensity with time was determined above, and the results plotted as a standard first order plot.

[4] = Bleaching in distearoylphosphatidyl choline vesicles; format: physicochemical; details: irradiated vesicles
Method: as §1

For `CCCCCCNc1c(Br)cc2c3c(cccc13)C(=O)N(CCCCCC)C2=O` [Compound VII, 3-bromo-4-(hexyl)amino-N-hexyl-1,8-naphthalimide], the “Infectivity, Average” value ([1]; 0.078 μM) was 37.5 PFU/ml, the “Infectivity, first PFU/ml column” value ([1]; 0.078 μM) was 45 PFU/ml and the “Infectivity, second PFU/ml column” value ([1]; 0.078 μM) was 30 PFU/ml. The “Infectivity, Average” value ([1]; 0.156 μM) was 17.5 PFU/ml, the “Infectivity, first PFU/ml column” value ([1]; 0.156 μM) was 20 PFU/ml and the “Infectivity, second PFU/ml column” value ([1]; 0.156 μM) was 15 PFU/ml. For the same compound, the “Infectivity, Average” value ([1]; 0.312 μM) was 7.5 PFU/ml, the “Infectivity, first PFU/ml column” value ([1]; 0.312 μM) was 10 PFU/ml and the “Infectivity, second PFU/ml column” value ([1]; 0.312 μM) was 5 PFU/ml. For the same compound, the “Infectivity, Average” value ([1]; 0.625 μM) was 0 PFU/ml, the “Infectivity, first PFU/ml column” value ([1]; 0.625 μM) was 0 PFU/ml and the “Infectivity, Average” value ([1]; 1.25 μM) was 0 PFU/ml. For the same compound, the “Infectivity, first PFU/ml column” value ([1]; 1.25 μM) was 0 PFU/ml, the “Infectivity, second PFU/ml column” value ([1]; 1.25 μM) was 0 PFU/ml and the “Infectivity, Average” value ([1]; 2.5 μM) was 0 PFU/ml. For the same compound, the “Infectivity, first PFU/ml column” value ([1]; 2.5 μM) was 0 PFU/ml, the “Infectivity, second PFU/ml column” value ([1]; 2.5 μM) was 0 PFU/ml and the “Infectivity, Average” value ([1]; 5 μM) was 0 PFU/ml. The “Infectivity, first PFU/ml column” value ([1]; 5 μM) was 0 PFU/ml, the “Infectivity, second PFU/ml column” value ([1]; 5 μM) was 0 PFU/ml and the “Infectivity, Average” value ([1]; 10 μM) was 0 PFU/ml. For the same compound, the “Infectivity, first PFU/ml column” value ([1]; 10 μM) was 0 PFU/ml, the “Infectivity, second PFU/ml column” value ([1]; 10 μM) was 0 PFU/ml and the activity at 0.078 µM ([1]; Human alphaherpesvirus 1, light or radiation study, 0.078 μM, read-out: % Survival) was 0.006%. The log reduction at 0.078 µM ([1]; Human alphaherpesvirus 1, light or radiation study, 0.078 μM, read-out: log10 reduction) was 4.2, the activity at 0.156 µM ([1]; Human alphaherpesvirus 1, light or radiation study, 0.156 μM, read-out: % Survival) was 0.0028% and the log reduction at 0.156 µM ([1]; Human alphaherpesvirus 1, light or radiation study, 0.156 μM, read-out: log10 reduction) was 4.5. For the same compound, the activity at 0.312 µM ([1]; Human alphaherpesvirus 1, light or radiation study, 0.312 μM, read-out: % Survival) was 0.0012%, the log reduction at 0.312 µM ([1]; Human alphaherpesvirus 1, light or radiation study, 0.312 μM, read-out: log10 reduction) was 4.9 and the activity at 0.625 µM ([1]; Human alphaherpesvirus 1, light or radiation study, 0.625 μM, read-out: % Survival) was less than 0.0002%. The log reduction at 0.625 µM ([1]; Human alphaherpesvirus 1, light or radiation study, 0.625 μM, read-out: log10 reduction) was greater than 5.7, the activity at 1.25 µM ([1]; Human alphaherpesvirus 1, light or radiation study, 1.25 μM, read-out: % Survival) was less than 0.0002% and the log reduction at 1.25 µM ([1]; Human alphaherpesvirus 1, light or radiation study, 1.25 μM, read-out: log10 reduction) was greater than 5.7. It also gave an activity at 2.5 µM ([1]; Human alphaherpesvirus 1, light or radiation study, 2.5 μM, read-out: % Survival) of less than 0.0002%, a log reduction at 2.5 µM ([1]; Human alphaherpesvirus 1, light or radiation study, 2.5 μM, read-out: log10 reduction) greater than 5.7 and an activity at 5 µM ([1]; Human alphaherpesvirus 1, light or radiation study, 5 μM, read-out: % Survival) of less than 0.0002%. For the same compound, the log reduction at 5 µM ([1]; Human alphaherpesvirus 1, light or radiation study, 5 μM, read-out: log10 reduction) was greater than 5.7, the activity at 10 µM ([1]; Human alphaherpesvirus 1, light or radiation study, 10 μM, read-out: % Survival) was less than 0.0002% and the log reduction at 10 µM ([1]; Human alphaherpesvirus 1, light or radiation study, 10 μM, read-out: log10 reduction) was greater than 5.7. The killing at 0.035 µM ([2]; 24 h) was 99.4%, the log reduction at 0.035 µM ([2]; 24 h, read-out: log10 red.) was 3.2 and the killing at 0.035 µM ([2]; 48 h) was 89.9%. For the same compound, the log reduction at 0.035 µM ([2]; 48 h, read-out: log10 red.) was 0.95, the killing at 0.07 µM ([2]; 24 h) was 99.8% and the log reduction at 0.07 µM ([2]; 24 h, read-out: log10 red.) was 3.7. The killing at 0.07 µM ([2]; 48 h) was 98.7%, the log reduction at 0.07 µM ([2]; 48 h, read-out: log10 red.) was 2 and the killing at 0.14 µM ([2]; 24 h) was greater than 100%. It also gave a log reduction at 0.14 µM ([2]; 24 h, read-out: log10 red.) greater than 3.7, a killing at 0.14 µM ([2]; 48 h) of 99.4% and a log reduction at 0.14 µM ([2]; 48 h, read-out: log10 red.) of 3.2. It also gave a killing at 0.27 µM ([2]; 24 h) greater than 100%, a log reduction at 0.27 µM ([2]; 24 h, read-out: log10 red.) greater than 3.7 and a killing at 0.27 µM ([2]; 48 h) of 99.4%. The log reduction at 0.27 µM ([2]; 48 h, read-out: log10 red.) was 3.2, the killing at 0.54 µM ([2]; 0.54 μM, 24 h) was greater than 100% and the killing at 0.54 µM ([2]; 0.54 μM, 48 h) was greater than 100%. The log reduction at 0.54 µM ([2]; 0.54 μM, 48 h, read-out: log10 red.) was greater than 3.7, the log reduction at 1.09 µM ([2]; 24 h) was greater than 3.7 and the killing at 1.09 µM ([2]; 24 h) was greater than 100%. The log reduction at 1.09 µM ([2]; 48 h) was greater than 3.7, the killing at 1.09 µM ([2]; 48 h) was greater than 100% and the “rate constant for bleaching” value ([3]; 0 mol % cholesterol) was 1.08 ± 0.08 × 10^-3 s^-1. The “rate constant for bleaching” value ([3]; 15 mol % cholesterol) was 2.00 ± 0.13 × 10^-3 s^-1, the “rate constant for bleaching” value ([3]; 30 mol % cholesterol) was 3.08 ± 0.20 × 10^-3 s^-1 and the “rate constant for bleaching” value ([3]; 45 mol % cholesterol) was 3.1 ± 0.9 × 10^-3 s^-1. The bleaching [4] was “do not bleach” and the “photodegradation of the dye” value [4] was “only very slow photodegradation”.
